From ChEMBL document CHEMBL1201862, “PubChem BioAssay data set” (2004)
The source made the active and inactive calls.

What was measured:
[1] = blockers of HIV-1 ZM109 envelope-driven cell-cell fusion – HeLa effector, CEM target cells, luciferase, cherry-pick, dose response (AID 652058); format: functional, cell-based;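 also: luciferase signal from HIV-1 Env mediated cell-cell fusion of effector and target cells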
Paired box protein Pax-8 = Paired box protein Pax-8 (Homo sapiens, UniProt Q06710); assay: PAX8 transcriptional activity inhibition in RMG-I – RMG-I cells, luciferase, cherry-pick, dose response (AID 687027); format: functional, cell-based;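 also: luciferase reporter driven by Pax8 target thyroperoxidase promoter measured by SteadyGlo luminescence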
Chain of Paired box protein Pax-8 (Q06710 whole entry, the tested form may be a part): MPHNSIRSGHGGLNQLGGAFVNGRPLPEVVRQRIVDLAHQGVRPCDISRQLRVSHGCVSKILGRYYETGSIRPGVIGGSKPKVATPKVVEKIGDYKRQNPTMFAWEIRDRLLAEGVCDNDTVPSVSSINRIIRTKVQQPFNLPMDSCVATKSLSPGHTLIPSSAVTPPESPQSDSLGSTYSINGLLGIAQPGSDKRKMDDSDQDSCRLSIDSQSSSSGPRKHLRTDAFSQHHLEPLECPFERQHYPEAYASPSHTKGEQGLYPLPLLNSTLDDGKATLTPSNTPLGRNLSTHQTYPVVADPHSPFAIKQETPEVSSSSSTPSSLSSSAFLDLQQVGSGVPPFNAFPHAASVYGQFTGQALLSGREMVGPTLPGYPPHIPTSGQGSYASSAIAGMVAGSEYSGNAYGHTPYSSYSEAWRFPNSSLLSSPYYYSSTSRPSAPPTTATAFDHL

[2] = HIV-1 AD8 envelope cell-cell fusion blockers – cherry-pick, dose response (AID 652062); format: functional, cell-based;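 also: luciferase signal from cell-cell fusion driven by HIV-1 clade B AD8 Env; potency is for inhibitors of fusion seen as a drop in luminescence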
[3] = blockers of HIV-1 envelope-mediated cell-cell fusion – cherry-pick, dose response (AID 652057); format: functional, cell-based
[4] = target: T1, DNA repair protein RAD52 homolog (Homo sapiens, UniProt P43351); format: functional, biochemical
T1 sequence (P43351 whole entry): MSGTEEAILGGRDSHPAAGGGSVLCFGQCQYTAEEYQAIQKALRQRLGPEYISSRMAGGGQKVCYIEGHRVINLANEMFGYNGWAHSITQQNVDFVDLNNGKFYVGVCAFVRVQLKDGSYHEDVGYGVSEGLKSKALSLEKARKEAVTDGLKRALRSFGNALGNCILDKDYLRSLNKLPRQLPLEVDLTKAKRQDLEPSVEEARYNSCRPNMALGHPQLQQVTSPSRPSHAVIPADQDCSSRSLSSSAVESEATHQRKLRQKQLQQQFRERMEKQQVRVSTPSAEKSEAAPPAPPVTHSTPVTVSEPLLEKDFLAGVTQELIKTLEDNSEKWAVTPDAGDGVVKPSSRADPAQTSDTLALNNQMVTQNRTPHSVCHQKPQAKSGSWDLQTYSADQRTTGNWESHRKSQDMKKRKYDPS

[5] = target: Peroxisome proliferator-activated receptor gamma/Nuclear receptor coactivator 2 (Homo sapiens, UniProt P37231); assay: (§1) TR-FRET dose response biochemical High Throughput Screening assay for agonists of the steroid receptor coactivator 2 (SRC-2) recruitment by the peroxisome proliferator-activated receptor gamma (PPAR gamma): non-selective agonists. [Related pubchem assays: 1297, 1032 ]; format: functional
Chain of Peroxisome proliferator-activated receptor gamma/Nuclear receptor coactivator 2 (P37231 whole entry): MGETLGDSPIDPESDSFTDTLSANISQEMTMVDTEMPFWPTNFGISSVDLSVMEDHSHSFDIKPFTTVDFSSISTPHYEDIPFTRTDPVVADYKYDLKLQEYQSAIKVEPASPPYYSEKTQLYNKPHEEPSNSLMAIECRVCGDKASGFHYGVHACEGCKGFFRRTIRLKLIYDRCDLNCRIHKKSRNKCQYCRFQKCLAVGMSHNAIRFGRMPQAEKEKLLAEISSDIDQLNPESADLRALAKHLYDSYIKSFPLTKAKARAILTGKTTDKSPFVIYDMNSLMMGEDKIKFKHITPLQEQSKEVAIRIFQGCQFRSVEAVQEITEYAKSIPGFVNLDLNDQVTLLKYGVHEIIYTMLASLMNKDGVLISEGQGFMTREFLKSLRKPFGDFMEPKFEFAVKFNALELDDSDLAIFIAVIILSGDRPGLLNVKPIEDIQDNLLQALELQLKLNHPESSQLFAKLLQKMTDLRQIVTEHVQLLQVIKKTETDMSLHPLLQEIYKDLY
Chain of Peroxisome proliferator-activated receptor gamma/Nuclear receptor coactivator 2 (Q15596 whole entry, further chain): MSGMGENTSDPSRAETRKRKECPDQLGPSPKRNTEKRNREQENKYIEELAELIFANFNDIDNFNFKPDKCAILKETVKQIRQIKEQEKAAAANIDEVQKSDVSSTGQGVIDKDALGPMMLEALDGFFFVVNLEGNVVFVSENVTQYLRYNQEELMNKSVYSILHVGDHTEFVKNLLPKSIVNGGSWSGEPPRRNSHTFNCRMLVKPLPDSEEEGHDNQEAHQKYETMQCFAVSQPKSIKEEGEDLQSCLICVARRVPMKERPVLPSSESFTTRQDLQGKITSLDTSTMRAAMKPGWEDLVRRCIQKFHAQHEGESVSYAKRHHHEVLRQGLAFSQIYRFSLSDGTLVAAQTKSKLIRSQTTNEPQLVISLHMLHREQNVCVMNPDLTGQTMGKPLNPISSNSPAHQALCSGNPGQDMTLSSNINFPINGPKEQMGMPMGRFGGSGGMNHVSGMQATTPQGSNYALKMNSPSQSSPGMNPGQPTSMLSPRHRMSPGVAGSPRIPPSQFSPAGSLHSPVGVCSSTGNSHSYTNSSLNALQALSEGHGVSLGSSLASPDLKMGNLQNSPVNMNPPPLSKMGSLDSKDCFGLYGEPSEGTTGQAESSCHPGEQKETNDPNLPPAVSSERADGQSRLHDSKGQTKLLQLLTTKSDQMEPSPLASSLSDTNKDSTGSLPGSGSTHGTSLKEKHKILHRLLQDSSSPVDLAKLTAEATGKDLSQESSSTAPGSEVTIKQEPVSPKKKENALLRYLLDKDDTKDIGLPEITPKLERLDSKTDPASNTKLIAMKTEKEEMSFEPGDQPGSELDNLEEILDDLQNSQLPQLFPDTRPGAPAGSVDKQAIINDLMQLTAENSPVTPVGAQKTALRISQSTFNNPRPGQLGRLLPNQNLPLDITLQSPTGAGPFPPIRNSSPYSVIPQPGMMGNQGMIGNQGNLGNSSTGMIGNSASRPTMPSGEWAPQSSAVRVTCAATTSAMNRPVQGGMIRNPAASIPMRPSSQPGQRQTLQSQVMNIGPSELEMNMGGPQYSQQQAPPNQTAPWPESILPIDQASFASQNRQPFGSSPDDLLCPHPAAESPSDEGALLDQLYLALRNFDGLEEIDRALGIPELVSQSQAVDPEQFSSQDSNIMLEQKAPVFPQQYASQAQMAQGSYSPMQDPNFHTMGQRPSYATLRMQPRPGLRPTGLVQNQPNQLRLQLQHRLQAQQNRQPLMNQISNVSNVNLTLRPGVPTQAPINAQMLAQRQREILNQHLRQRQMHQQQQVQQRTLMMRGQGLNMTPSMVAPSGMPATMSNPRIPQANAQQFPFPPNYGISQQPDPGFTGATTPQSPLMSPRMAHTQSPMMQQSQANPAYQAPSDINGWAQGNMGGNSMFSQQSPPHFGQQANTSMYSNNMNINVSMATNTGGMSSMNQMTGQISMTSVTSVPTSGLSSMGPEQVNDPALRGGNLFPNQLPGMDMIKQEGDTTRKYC

[6] = target: Peroxisome proliferator-activated receptor gamma/Nuclear receptor coactivator 3 (Homo sapiens, UniProt P37231); assay: as §1, with “3 (SRC-3)” for “2 (SRC-2)”, “1301 (Confirmation screen.), 1048 (Primary screen.)]” for “1297, 1032 ]”; format: functional
[7] = target: Peroxisome proliferator-activated receptor gamma/Nuclear receptor coactivator 1 (Homo sapiens, UniProt P37231); assay: as §1, with “1 (SRC-1)” for “2 (SRC-2)”, “assays (depositor defined):AID1300, AID1808, AID504735, AID631]” for “assays: 1297, 1032 ]”; format: protein assay
Chain of Peroxisome proliferator-activated receptor gamma/Nuclear receptor coactivator 1 (P37231 whole entry): as the sequence (P37231 whole entry) above
Chain of Peroxisome proliferator-activated receptor gamma/Nuclear receptor coactivator 1 (Q15788 whole entry, further chain): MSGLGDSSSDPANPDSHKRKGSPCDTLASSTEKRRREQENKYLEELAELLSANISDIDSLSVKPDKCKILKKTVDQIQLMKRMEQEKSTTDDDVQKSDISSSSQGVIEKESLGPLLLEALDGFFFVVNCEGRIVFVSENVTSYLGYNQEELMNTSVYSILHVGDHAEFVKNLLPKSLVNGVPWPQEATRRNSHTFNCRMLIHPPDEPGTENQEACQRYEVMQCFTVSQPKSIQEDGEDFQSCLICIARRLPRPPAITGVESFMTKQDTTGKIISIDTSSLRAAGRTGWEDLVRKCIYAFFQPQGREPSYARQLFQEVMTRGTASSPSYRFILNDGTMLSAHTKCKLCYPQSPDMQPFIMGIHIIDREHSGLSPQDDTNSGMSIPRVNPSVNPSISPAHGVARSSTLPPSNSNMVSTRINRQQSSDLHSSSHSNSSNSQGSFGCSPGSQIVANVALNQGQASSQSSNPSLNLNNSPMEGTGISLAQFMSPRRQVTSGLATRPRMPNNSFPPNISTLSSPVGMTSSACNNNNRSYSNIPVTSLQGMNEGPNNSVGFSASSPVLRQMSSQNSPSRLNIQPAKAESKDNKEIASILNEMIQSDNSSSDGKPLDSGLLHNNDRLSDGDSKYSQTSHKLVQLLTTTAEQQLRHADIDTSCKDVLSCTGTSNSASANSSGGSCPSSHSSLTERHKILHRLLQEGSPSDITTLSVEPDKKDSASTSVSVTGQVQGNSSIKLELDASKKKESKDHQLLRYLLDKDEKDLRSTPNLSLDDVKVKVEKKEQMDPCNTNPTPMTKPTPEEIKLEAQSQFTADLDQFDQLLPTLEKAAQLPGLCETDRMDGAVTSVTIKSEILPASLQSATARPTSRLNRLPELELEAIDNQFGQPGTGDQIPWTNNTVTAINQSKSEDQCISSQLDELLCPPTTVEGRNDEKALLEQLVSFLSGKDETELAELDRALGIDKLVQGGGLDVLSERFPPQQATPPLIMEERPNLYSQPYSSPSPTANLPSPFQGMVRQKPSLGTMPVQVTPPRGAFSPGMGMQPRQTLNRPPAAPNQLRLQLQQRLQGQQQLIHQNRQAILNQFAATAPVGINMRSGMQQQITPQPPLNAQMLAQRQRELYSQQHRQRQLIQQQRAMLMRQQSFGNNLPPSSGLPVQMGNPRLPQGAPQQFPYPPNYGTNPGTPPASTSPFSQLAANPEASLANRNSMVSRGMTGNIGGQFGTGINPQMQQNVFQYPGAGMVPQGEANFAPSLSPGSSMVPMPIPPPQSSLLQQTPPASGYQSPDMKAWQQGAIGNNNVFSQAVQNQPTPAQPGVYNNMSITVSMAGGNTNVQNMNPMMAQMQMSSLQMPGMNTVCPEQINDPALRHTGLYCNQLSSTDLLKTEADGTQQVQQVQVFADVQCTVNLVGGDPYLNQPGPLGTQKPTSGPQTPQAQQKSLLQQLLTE

H9c2 = assay: cells; format: functional, cell-based; conditions: Rattus norvegicus, H9c2, Myocardium;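 also: confirmatory concentration-response retest of ultra-high-throughput screening hits for modulation of myocardial damage; cell death induced by hydrogen peroxide oxidative stress; compound pretreatment for 60 min then peroxide exposure for 2 h; potency is for protecting the cells against peroxide damage rather than for killing them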
[8] = target: T2, Ubiquitin-conjugating enzyme E2 N (Homo sapiens, UniProt P61088); format: functional;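 also: Dose-response confirmation in a TR-FRET assay detecting UBC13-driven polyubiquitin chain formation, inhibition measured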
T2 sequence (P61088 whole entry): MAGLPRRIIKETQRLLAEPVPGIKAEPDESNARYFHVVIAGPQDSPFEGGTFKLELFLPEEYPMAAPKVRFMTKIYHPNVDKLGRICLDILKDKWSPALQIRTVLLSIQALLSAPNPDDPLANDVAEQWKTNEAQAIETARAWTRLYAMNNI

Nonstructural protein 1 = Nonstructural protein 1 (Influenza A virus, UniProt Q194T2); format: functional, Influenza A virus (A/California/07/2009(H1N1))
Chain of Nonstructural protein 1 (Q194T2 whole entry): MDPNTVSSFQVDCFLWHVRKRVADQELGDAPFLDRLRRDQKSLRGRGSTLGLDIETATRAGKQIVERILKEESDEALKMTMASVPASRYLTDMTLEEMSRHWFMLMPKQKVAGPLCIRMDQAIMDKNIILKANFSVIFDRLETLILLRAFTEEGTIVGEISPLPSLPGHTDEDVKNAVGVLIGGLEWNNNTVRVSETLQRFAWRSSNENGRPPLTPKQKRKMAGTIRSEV

Aminopeptidase N = target: T3, Aminopeptidase N (Plasmodium falciparum FcB1/Columbia, UniProt O96935); assay: malaria alanyl aminopeptidase activity blockers – biochemical, fluorogenic H-Leu-NHMec substrate, 1536-well (AID 1445); design: species or system Plasmodium falciparum 3D7, 3D7
T3 sequence (O96935 whole entry): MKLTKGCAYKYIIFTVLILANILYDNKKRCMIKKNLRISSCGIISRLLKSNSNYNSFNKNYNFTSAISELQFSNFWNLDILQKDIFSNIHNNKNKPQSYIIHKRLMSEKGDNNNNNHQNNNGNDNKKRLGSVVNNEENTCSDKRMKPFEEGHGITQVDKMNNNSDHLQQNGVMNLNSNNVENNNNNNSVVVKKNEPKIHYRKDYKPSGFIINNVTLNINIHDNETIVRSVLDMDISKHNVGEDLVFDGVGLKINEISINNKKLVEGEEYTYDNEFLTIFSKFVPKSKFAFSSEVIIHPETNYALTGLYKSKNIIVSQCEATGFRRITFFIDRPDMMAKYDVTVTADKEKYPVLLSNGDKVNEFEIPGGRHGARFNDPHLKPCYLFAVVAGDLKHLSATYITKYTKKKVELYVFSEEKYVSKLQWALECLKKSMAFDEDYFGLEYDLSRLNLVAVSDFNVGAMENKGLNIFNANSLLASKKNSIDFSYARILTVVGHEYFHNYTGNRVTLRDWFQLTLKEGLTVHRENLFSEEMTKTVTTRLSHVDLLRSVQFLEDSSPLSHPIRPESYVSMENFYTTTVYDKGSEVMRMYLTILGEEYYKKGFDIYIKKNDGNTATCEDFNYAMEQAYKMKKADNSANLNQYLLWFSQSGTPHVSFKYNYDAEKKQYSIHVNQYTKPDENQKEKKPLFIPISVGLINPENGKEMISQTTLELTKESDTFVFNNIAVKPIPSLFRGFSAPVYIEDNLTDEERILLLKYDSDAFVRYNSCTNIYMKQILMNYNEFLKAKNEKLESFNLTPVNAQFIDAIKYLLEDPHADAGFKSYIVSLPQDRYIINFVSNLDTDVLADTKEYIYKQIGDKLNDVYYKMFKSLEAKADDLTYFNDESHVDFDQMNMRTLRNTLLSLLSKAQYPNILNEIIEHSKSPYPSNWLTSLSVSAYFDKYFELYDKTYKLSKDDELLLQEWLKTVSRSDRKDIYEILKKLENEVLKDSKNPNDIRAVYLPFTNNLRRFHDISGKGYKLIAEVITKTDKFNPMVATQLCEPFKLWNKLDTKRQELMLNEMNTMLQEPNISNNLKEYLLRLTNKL

[9] = NIH-3T3 fibroblast cytotoxicity, dose response, cytotoxicity control, cell-based, fluorescence, Alamar Blue, secondary assay (AID 2327); format: functional;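 also: NIH-3T3 mouse fibroblasts cultured with fluconazole at 8 µg/mL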
[10] = fluconazole-exposed Candida albicans growth modulators – fluorescence, retest, confirmation (AID 2467); format: functional, cell-based
[11] = viability of HCT116 lacking mutant beta-catenin – cell-based, human colon tumor, dose response (AID 1045); format: functional;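 also: HCT116 colon tumor cells with beta catenin knocked out; cells exposed to compound for 60 hours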
[12] = viability of PTEN-deleted HCT116 cells – cell-based, HCT116 PTEN knockout, dose response (AID 1047); format: functional;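 also: HCT116 colon tumor cells with PTEN knocked out; cells exposed to compound for 60 hours before readout; potency for loss of cell viability measured by luminescence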
[13] = microbe, parasite or virus in culture; format: functional; conditions: Mycobacterium tuberculosis
[14] = non-specific 3'UTR reporter inhibition in Clone20-Shn3RL – cell-based, Renilla luciferase, cherry-picked, counter-screen for Shn3 inhibitor project, dose response (AID 624133); format: functional
[15] = reduction of Shn3 3'UTR-driven luciferase in osteoblasts – cell-based, Clone20 osteoblasts, firefly luciferase, cherry-picked, dose response (AID 624132); format: functional;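 also: firefly luciferase luminescence from reporter carrying the Shn3 3'UTR in osteoblasts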
[16] = loss of viability in HepG2 cells – cell-based, CellTiter-Glo, cherry-picked, cytotoxicity control for Shn3 inhibitor project, dose response (AID 624134); format: functional

For CC(C)CC#Cc1ccc2c(c1)O[C@H](CN(C)S(=O)(=O)c1ccc(F)cc1)[C@H](C)CN([C@@H](C)CO)S2(=O)=O, the AC50 [1] was 20.8 µM (active), the AC50 (Paired box protein Pax-8) was 9.6 µM (active) and the AC50 [2] was 23.7 µM (active). For the same compound, the AC50 [3] was 26.6 µM (active).
For C/N=C(\C[N+](=O)[O-])NCCSCc1ccc(CN(C)C)o1, the AC50 [4] was 12.5 µM (active).
For COCCCn1c(=S)[nH]c2sc3c(c2c1=O)CCCS3, the EC50 [5] was 26.7 µM (not active), the EC50 [6] was > 79.4 µM (not active) and the EC50 [7] was 66.8 µM (inactive).
With CCOc1ccc(C(C(=O)NCC2CCCO2)N(C(=O)c2snc(C(N)=O)c2N)c2ccccc2F)cc1 (stereo unspecified) the IC50 (H9c2) was > 79 µM (inactive) and the IC50 [8] was > 20 µM (inactive).
In the case of CCSC1=NC(=O)/C(=C2/C=Cc3ccccc3N2CC)S1, the IC50 (Nonstructural protein 1) is reported as 9.25 µM (active).
In the case of CC(=O)Nc1ccc(S(=O)(=O)Nc2nc3ccccc3nc2Nc2ccccc2)cc1, the IC50 (Aminopeptidase N) is reported as 94.9 µM (active).
In the case of O=C(CN1C(=O)C2C3CC(C(Br)C3Br)C2C1=O)Nc1ccc(C(=O)O)cc1 (stereo unspecified), the IC50 (Aminopeptidase N) is reported as 62.5 µM (active).
With CC(C)c1ccc(OCC(=O)Nc2cccc(C(=O)Nc3ccccc3C(=O)O)c2)cc1 the EC50 [9] was 16.9 µM (inconclusive) and the EC50 [10] was 1.9 µM (active).
In the case of Cc1nnc(NC(=O)c2ccc3ccccc3n2)s1, the IC50 (Aminopeptidase N) is reported as 36.8 µM (active).
For COc1ccc(CNC(=O)CSc2cc(=O)n(C)c3ccccc23)cc1, the EC50 [5] was > 79.4 µM (not active), the EC50 [6] was > 79.4 µM (not active) and the EC50 [7] was > 79.4 µM (inactive).
For O=C(N/N=C/c1ccc(Cl)cc1Cl)Nc1ccccc1, the EC50 [9] was > 160 µM (inactive) and the EC50 [10] was > 38 µM (not active).
For CN1CCN(Cc2nc3ccccc3c(=O)n2Cc2nc(-c3ccc([N+](=O)[O-])cc3)cs2)CC1, the EC50 [11] was 7.87 µM (active), the EC50 [12] was 4.88 µM (active) and the IC50 [8] was > 20 µM (inactive).
With COc1ccc(C2=NN(C(=N)S)C(c3ccccc3)C2)cc1 (stereo unspecified) the EC50 [5] was 8.07 µM (active), the EC50 [6] was > 79.4 µM (not active) and the EC50 [7] was 8.24 µM (active).
With O=C(Cc1ccccc1)Nc1nnc(-c2ccco2)s1 the EC50 [5] was > 79.4 µM (not active), the EC50 [6] was > 79.4 µM (not active) and the EC50 [7] was > 79.4 µM (inactive).
For COc1ccc(OC)c(-n2c(CN3CCC(C(N)=O)CC3)nc3ccccc3c2=O)c1, the EC50 [9] was > 150 µM (inactive) and the EC50 [10] was 3.29 µM (active).
With CC(C)NC(=O)Nc1ccc2c(c1)CC(=O)N([C@H](C)CO)C[C@H](C)[C@H](CN(C)S(=O)(=O)c1ccccc1)O2 the AC50 [1] was 10.7 µM (active), the AC50 [2] was 35.9 µM (active) and the AC50 [3] was 8.61 µM (active).
For CC(=O)Oc1ccc2c(C)c(CC(C)O)c(=O)oc2c1 (stereo unspecified), the IC50 (Aminopeptidase N) was 62.4 µM (active).
With CCCOC(=O)/C(=C\c1ccc([N+](=O)[O-])o1)NC(=O)c1ccccc1 the EC50 [9] was > 160 µM (inactive), the CC50 [13] was 35.1 µM (active) and the EC50 [10] was 0.174 µM (active).
For O=C1Nc2ccccc2S/C1=C/NCc1ccccc1Cl, the IC50 (Aminopeptidase N) was 5.63 µM (active).
With Cc1c(Cc2ccccc2)c(=O)oc2c(CN(C)C)c(O)c(Cl)cc12 the IC50 (Aminopeptidase N) was 33 µM (active).
In the case of O=C(COc1cc(F)ccc1[N+](=O)[O-])Nc1ccc(N2CCCCC2)cc1, the IC50 (Nonstructural protein 1) is reported as 21.3 µM (active).
In the case of C[C@@H]1CCCCCCCCC(=O)OCCN[C@H](C)CCCCCCCCC(=O)OCCN[C@H](C)CCCCCCCCC(=O)OCCN1, the CC50 [13] is reported as 26.5 µM (active) and the IC50 [8] is reported as > 20 µM (inactive).
For CCCS(=O)(=O)Nc1ccc(Nc2c3ccccc3nc3ccccc23)c(OC)c1, the AC50 [14] was 1.03 µM (active), the AC50 [4] was 3.15 µM (active) and the AC50 [15] was 3.39 µM (active). For the same compound, the AC50 [16] was 20.1 µM (active).
With CCN(CC)CCNC(=O)c1nn(-c2ccc(Cl)cc2)c2c1CCc1cc(OC)ccc1-2 the AC50 [4] was 16.8 µM (active).
With O=C(C[n+]1ccccc1)NN=Cc1cc(Br)ccc1O the IC50 (Nonstructural protein 1) was 2.96 µM (active).
For C#CCOCCOCCOCCNc1nc(N2CCOCC2)nc(N2CCN(C(=O)CCCCCCCCCCNC(=O)[C@@H]([C@H](C)CC)n3cc(CCCCCN)nn3)CC2)n1, the IC50 [8] was > 20 µM (inactive).
